Laboratory results reported in PubChem BioAssay (NCI).
“And” between values parts separate entries of the source, which are not always exact repeats. Equal values may be shown once.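 Cultured in 96-well plates, cells were exposed to test compound for 48 hours across five concentrations. GI50 is the concentration that inhibits growth by half. TGI marks complete inhibition of growth.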

How the values were obtained:
Assay in all cases: DTP human tumour cell line panel, 48 h
LOX IMVI melanoma = tested on: LOX IMVI melanoma
SK-MEL-2 melanoma = tested on: SK-MEL-2 melanoma
HL-60(TB) leukemia = tested on: HL-60(TB) leukemia
MDA-MB-231 breast = tested on: MDA-MB-231 breast
NCI-H460 lung = tested on: NCI-H460 lung
EKVX NSCLC = tested on: EKVX NSCLC
NCI-H23 lung = tested on: NCI-H23 lung
ACHN renal = tested on: ACHN renal
SK-MEL-5 melanoma = tested on: SK-MEL-5 melanoma
BT-549 breast = tested on: BT-549 breast

SMILES | TGI (LOX IMVI melanoma) [µM] | TGI (SK-MEL-2 melanoma) [µM] | TGI (HL-60(TB) leukemia) [µM] | TGI (MDA-MB-231 breast) | TGI (NCI-H460 lung) [µM] | TGI (EKVX NSCLC) [µM] | TGI (NCI-H23 lung) [µM] | TGI (ACHN renal) | TGI (SK-MEL-5 melanoma) [µM] | TGI (BT-549 breast) [µM] | GI50 (LOX IMVI melanoma) | GI50 (SK-MEL-2 melanoma) | GI50 (HL-60(TB) leukemia) | GI50 (MDA-MB-231 breast) | GI50 (NCI-H460 lung) | GI50 (EKVX NSCLC) [µM] | GI50 (NCI-H23 lung) | GI50 (ACHN renal) | GI50 (SK-MEL-5 melanoma) [µM] | GI50 (BT-549 breast)
CN(C)CCCc1c2ccccc2nc2ccc(Cl)cc12 | 29.1 | 34.8 | 40.3 | 31.9 µM | 25.3 | 35.1 | 84.8 | 33.6 µM | 28.2 | 38.2 | – | – | – | – | – | – | – | – | – | –
CCC[CH2][Sn]1([CH2]CCC)[O]C(=O)c2ccc(N)cc2[O]1 | 1.45 | 0.913 | 1.67 | 1.42 µM | 4.21 | 2.47 | 1.61 | 1.92 µM | 2.15 | 0.985 | 0.287 µM | 0.141 µM | 0.105 µM | 0.185 µM | 1.73 µM | 0.285 | 0.336 µM | 0.655 µM | 0.692 | 0.15 µM
COc1ccc(NC(=O)n2nc(/C=C\c3ccc(O)c(OC)c3)cc2/C=C\c2ccc(O)c(OC)c2)cc1 | > 100 | 18.1 | 6.69 | 83.5 µM | 31.4 | 83.7 | 63.8 | > 100 µM | 16.1 | 29.5 | 3.95 µM | 3.23 µM | 2.55 µM | 4.94 µM | 4.24 µM | 6.62 | 3.81 µM | 4.18 µM | 3.67 | 2.49 µM
Clc1ccc2c(c1)C(N1CCNCC1)=Nc1ccccc1O2 | 2.87 | 3.4 | 3.86 | 4.02 µM | 5.41 | 17.4 | 14.3 | 4.2 µM | 2.69 | 10.2 | 1.54 µM | 1.77 µM | 1.95 µM | 1.79 µM | 2.46 µM | 3.47 | 3.46 µM | 1.97 µM | 1.39 | 2.42 µM
CN1c2ccccc2S(=O)(=O)n2c(CCc3ccccc3)nnc21 | > 100 | > 100 | > 100 | > 100 µM | > 100 | > 100 | > 100 | > 100 µM | > 100 | > 100 | – | – | – | – | – | – | – | – | – | –
C[C@]12CC[C@H]3[C@@H](CC[C@]4(O)C[C@@H](O)CC[C@]34CO)[C@@]1(O)CC[C@@H]2C1=CC(=O)OC1 | 8.19 | 8.23 | 8.23 | > 51.3 µM | 1.81 | 3.49 | 4.98 | 7.08 µM | 5.08 | 3.68 | – | – | – | – | – | – | – | – | – | –
COc1cc2ncnc3c2cc1OCCCCCN(C)Cc1ccc(Br)cc1N3 | > 100 | > 100 | > 100 | 50.9 µM and > 10 µM | > 100 | > 10 | > 100 | 37.5 µM and > 10 µM | > 100 | > 100 | 2.93 µM and 2.12 µM | 6.37 µM and 2.2 µM | 2.94 µM and 3.68 µM | 10.6 µM and 7.51 µM | 3.44 µM and 1.27 µM | 0.24 | 40.8 µM and > 10 µM | 0.0871 µM and 0.262 µM | 24 | 21.8 µM and 6.87 µM
